Measurements from patent US20130331610A1, “Halogenated Pyrazolo[1,5-A]Pyrimidines, Processes, Uses, Compositions and Intermediates” (priority 2005, published 2013).
Like-named read-outs stand apart in the source and are kept apart here.

Tests used:
[1] = biological target: α1 subunit of GABAA receptor (Rattus norvegicus, UniProt P18508+P62813); assay: biochemical; settings: for inhibition at 10 µM: read-out: % Inhib 10^−5 M; for inhibition at 0.1 µM: read-out: % Inhib 10^−7 M
From the text: % specific binding=(X−N/T−N)×100

[2] = biological target: α2 subunit of GABAA receptor (Rattus norvegicus, UniProt P18508+P23576); assay: biochemical; settings: for inhibition at 10 µM: read-out: % Inhib 10^−5 M; for inhibition at 0.1 µM: read-out: % Inhib 10^−7 M
Chain of α2 subunit of GABAA receptor (P23576 29-451): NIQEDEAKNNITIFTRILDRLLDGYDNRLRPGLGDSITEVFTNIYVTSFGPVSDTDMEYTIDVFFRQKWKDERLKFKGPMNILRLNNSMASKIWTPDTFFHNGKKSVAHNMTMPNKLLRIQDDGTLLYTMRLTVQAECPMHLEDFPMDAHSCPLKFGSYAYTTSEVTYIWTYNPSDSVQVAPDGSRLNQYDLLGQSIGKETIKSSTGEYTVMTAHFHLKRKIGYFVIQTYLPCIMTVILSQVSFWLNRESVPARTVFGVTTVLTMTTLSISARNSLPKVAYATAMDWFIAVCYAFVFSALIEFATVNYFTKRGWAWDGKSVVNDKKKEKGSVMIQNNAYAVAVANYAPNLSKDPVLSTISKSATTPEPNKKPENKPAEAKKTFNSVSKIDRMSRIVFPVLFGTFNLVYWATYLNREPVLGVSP
Chain of α2 subunit of GABAA receptor (P18508 39-466): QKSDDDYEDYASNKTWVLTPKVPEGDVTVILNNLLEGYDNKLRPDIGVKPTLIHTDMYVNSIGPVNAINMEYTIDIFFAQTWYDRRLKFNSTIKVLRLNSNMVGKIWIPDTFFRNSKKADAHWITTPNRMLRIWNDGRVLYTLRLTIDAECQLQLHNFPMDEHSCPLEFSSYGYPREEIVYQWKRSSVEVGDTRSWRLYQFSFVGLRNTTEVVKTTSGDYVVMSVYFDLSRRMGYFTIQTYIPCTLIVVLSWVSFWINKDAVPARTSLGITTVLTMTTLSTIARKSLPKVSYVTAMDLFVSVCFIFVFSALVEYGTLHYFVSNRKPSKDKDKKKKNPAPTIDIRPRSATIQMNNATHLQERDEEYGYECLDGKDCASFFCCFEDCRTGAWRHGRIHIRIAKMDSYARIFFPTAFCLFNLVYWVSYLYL
Chain of α2 subunit of GABAA receptor (P63079 26-473 partner): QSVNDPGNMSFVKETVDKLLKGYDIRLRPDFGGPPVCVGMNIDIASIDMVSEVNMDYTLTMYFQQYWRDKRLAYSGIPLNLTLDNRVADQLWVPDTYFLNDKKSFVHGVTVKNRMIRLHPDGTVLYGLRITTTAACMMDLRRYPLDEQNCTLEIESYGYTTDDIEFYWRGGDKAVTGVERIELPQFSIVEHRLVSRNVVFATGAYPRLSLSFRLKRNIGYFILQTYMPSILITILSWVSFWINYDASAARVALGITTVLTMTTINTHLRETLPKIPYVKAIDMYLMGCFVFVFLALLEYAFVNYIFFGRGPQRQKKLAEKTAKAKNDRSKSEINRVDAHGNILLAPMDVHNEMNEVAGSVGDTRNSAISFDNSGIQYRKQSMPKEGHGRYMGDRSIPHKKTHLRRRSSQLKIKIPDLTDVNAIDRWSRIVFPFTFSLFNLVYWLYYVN
Method: Determination of the Affinity of Test Compounds for α1- and α2-GABAA Receptor
Male Sprague-Dawley rats weighing 200-250 g at the time of experiment were used. After decapitation, the cerebellum (tissue that mostly contains α1-GABAA receptor) and spinal cord (tissue that mostly contains α2-GABAA receptor) were removed. […] Once the tissues weighed, they were suspended in 50 mM Tris.HCl (pH 7.4), 1:40 (v/v), or sucrose 0.32 M in the case of spinal cord, homogenized and then centrifuged at 20000 g for 10 min at 7° C. The resulting pellet was resuspended under the same conditions and centrifuged again. The pellet was finally resuspended on a minimum volume and kept at −80° C. overnight. On the next day, the process was repeated until the final pellet was resuspended at a ratio of 1:10 (v/v) in the case of cerebellum and at a ratio of 1:5 (v/v) in the case of spinal cord.
Affinity was determined by competitive tests using radiolabeled flumazenil as ligand. […] Simultaneously, the membranes were only incubated with the radiolabeled flumazenil (total binding, 100%) and in the presence of an elevated concentration of unradiolabeled flumazenil (non-specific binding, % estimation of radiolabeled ligand). The reactions started on adding the radiolabeled ligand followed by incubation for 60 minutes at 4° C. At the end of the incubation period, 200 μl of reaction were transferred to a multiscreen plate (Millipore) and filtered using a vacuum manifold and then washed three times with cold test buffer. The multiscreen plates were equipped with a GF/B filter that retained the membranes containing the receptors and the radiolabeled ligand which had been bound to the receptors. After washing, the plates were left till dry. Once dried, scintillation liquid was added and left under stirring overnight. The next day the plates were counted using a Perkin-Elmer Microbeta scintillation counter.
where, X: amount of bound ligand for every concentration of compound. T: total binding, maximum amount bound to the radiolabeled ligand. N: non-specific binding, amount of radiolabeled ligand bound in a non-specific way irrespective of the receptor used.
Every concentrations of each compound were tested in triplicate and their mean values were used to determine the experimental values of % specific binding versus the concentration of compound.

motor activity of mice = assay: In vivo predictive sedation-hypnosis test in mice (inhibition of traveled distance); set-up: species or system mouse; settings: for inhibition in vivo at 0.98 µmol/kg / inhibition in vivo at 98 µmol/kg / inhibition in vivo at 3 µmol/kg: Mus musculus, read-out: % Inhib motor activity; for inhibition in vivo at 0.98 µmol/kg: 0.98 μmol/kg; for inhibition in vivo at 0.98 µmol/kg / inhibition in vivo at 98 µmol/kg / inhibition in vivo at 3 µmol/kg / inhibition percentage (motor activity): mice; for inhibition in vivo at 98 µmol/kg: 98 μmol/kg; for inhibition in vivo at 3 µmol/kg: 3 μmol/kg; for inhibition percentage (motor activity): 3 μmol/kg po
Method: 2—In Vivo Determination of Predictive Sedative-Hypnotic Action
The in vivo effects of these compounds were assessed by a predictive sedation-hypnosis test in mice (D. J. Sanger et al., Eur. J. Pharmacol., 313, 35-42, 1996; and G. Griebel et al., Psychopharmacology, 146, 205-213, 1999).
Groups of 5-8 male CD1 mice, weighing 22-26 g at the time of testing, were used. The test compounds were administered in single equimolecular intraperitoneal doses, suspended in 0.25% agar with one drop of Tween 80 in a volume of 10 ml/kg. Two doses were tested in each route. Control animals received the vehicle alone. Using a Smart System (Panlab, S. L., Spain) the traveled distance in cm was recorded for each mouse at 5-min intervals during a period of 30 minutes after intraperitoneal (ip) dosing and 60 minutes after oral (po) dosing. The inhibition percentage of traveled distance of treated animals versus control animals (the first 5 min were discarded) was calculated.

[3] = Metabolic stability in human hepatocytes cytosolic fraction; type: in vitro ADME; settings: 5 μM, 1.0 mg/ml human cytosol, 37° C.
Method: In Vitro Determination of Metabolic Stability in Human Hepatocytes Cytosolic Fraction
Compounds were dissolved in DMSO to achieve an initial concentration of 10 mM. This stock solution was then diluted with solvent and buffer to obtain final assay concentration of 5 μM. Compounds were tested at a single concentration of 5 μM in duplicate incubating with 1.0 mg/ml of pooled human cytosol (obtained from Xenotech plc) at 37° C. Metabolism was assessed in the presence or absence of cofactors and measured as loss of parent compound by LC/MS analysis at 0, 60 and 120-minutes time points. Percent parent remaining was then calculated. A generic LC method was used: • Mobile phase: • A=0.1% Formic acid in water • B=0.1% Formic acid in acetonitrile • HPLC Column: Higgins Clipius C18 5 μm, 50×3 mm • Flow rate: 2 ml·min^−1

[4] = Pharmacokinetic profile after single intravenous dose in rats; type: in vivo; settings: rat; for Vd / clearance / half-life: male, Sprague-Dawley, plasma; for Vd / clearance / half-life / AUC0-t: mean
Method: In Vivo Determination of Pharmacokinetic Profile after Single Dose
Indiplon was used as reference compound. Three male Sprague-Dawley rats, weighing 250-300 g were used for each compound. The sampling was performed by retroorbital sinus puncture at the following time points 2.5, 5, 30, 60, 120, 180, 300 and 420 min post-administration. The samples were kept in an ice-bath until plasma separation. The animals were anaesthetized by isoflurane inhaled at each extraction. Plasma was separated by centrifugation (10 min, 4° C., 4500 rpm) and stored at temperature below −70° C. until analysis.
An analytical method based on an extraction of each compound by liquid-solid extraction and subsequent determination by LC/MS or LC/MS/MS using an internal standard (IS) was used.
Calculation of pharmacokinetic parameters (AUC0-t=area under the curve from zero to last extraction time-point, Cl=clearance, t1/2=half-life and Vd=volume of distribution) according to non-compartmental analysis was performed.

HepG2 cells = assay: In vitro cell toxicity in HepG2 at 24 h (MTS); type: cell-based, human; settings: for cytotoxicity compared with prior art compounds: HepG2, 24 h; for cell toxicity in HepG2, percentage of control (relative cell viability): 100 μM, 24 h, MTS
Method: In Vitro Determination of Cell Toxicity in HepG2 at 24 h
HepG2 cells (human hepatocellular carcinoma) were obtained from the American Type Culture Collection (ATCC) and cultured in Eagle's Minimum Essential Medium (Eagle) with Earle's balanced salt solution adjusted to contain 1.87 mM Glutamax™ I, 0.1 mM non-essential amino acids, 1.0 mM sodium pyruvate, 100000 U/L penicillin, 10000 μg/L streptomycin 90%; fetal bovine serum, 10%. Promega CellTiter 96® Aqueous Non-Radioactive Cell Viability Assay contains the tetrazolium compound [3-(4,5-dimethylthiazol-2-yl)-5-(3-carboxymethoxyphenyl)-2-(4-sulfophenyl)-2H-tetrazolium, inner salt (MTS). The conversion of MTS into the aqueous soluble formazan product is accomplished by dehydrogenase enzymes found in metabolically active cells. The quantity of formazan product is directly proportional to the number of living cells in culture.
Compounds were dissolved in DMSO to achieve an initial concentration of 100 mM. Serial dilutions were made from this stock solution into DMSO to achieve concentrations of 10, 1, 0.1 and 0.01 mM. The stock solution and serial dilutions were then diluted 1:100 with cell culture medium to obtain […] final assay concentrations of […]. The final DMSO concentration in all wells was 1% v/v. HepG2 cells were incubated with test compounds for 24 hours. Relative cell viability was determined spectrophotometrically at 490 nm following the addition of the MTS dye and further one-hour incubation. Tamoxifen was used as the positive control.
The percent absorbance of the samples treated with the test article was compared to the untreated sample to calculate the percentage of control.

Chain of α1 subunit of GABAA receptor (P62813 28-455): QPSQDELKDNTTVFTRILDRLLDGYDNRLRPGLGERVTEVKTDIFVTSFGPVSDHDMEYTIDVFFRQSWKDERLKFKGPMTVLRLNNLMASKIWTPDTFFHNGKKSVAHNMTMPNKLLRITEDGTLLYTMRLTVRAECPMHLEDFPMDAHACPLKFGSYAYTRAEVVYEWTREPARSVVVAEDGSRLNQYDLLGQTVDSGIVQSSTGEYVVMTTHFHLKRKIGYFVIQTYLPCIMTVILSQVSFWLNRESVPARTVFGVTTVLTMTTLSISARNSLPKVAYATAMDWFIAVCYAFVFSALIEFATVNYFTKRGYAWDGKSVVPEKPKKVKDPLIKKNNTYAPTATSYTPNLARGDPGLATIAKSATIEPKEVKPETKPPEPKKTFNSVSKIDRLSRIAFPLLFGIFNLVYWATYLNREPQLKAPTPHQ
Chain of α1 subunit of GABAA receptor (P18508 39-466): as the sequence (P18508 39-466) above
Chain of α1 subunit of GABAA receptor (P63138 26-474 partner): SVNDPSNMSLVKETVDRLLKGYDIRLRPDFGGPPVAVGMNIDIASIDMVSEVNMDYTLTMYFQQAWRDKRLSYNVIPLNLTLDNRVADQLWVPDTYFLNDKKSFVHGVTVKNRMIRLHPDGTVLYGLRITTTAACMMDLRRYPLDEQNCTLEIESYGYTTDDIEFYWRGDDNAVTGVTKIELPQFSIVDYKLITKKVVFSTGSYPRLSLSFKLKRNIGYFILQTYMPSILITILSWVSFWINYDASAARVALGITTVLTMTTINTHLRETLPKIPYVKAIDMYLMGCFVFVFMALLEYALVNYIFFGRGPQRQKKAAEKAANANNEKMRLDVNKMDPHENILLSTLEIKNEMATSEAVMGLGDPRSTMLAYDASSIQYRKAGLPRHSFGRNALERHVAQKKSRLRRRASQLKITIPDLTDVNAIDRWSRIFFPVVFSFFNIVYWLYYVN

Work on `CN(c1cccc(-c2ccnc3c(C(=O)c4cccs4)cnn23)c1)S(C)(=O)=O` [Example 3 WO2005014597, N-{3-[3-(thiophene-2-carbonyl)-pyrazolo[1,5-a]pyrimidin-7-yl]-phenyl}-N-methyl-methanesulfonamide, reference compound] yielded an inhibition at 10 µM [1] of 100%, an inhibition at 0.1 µM [1] of 90.6% and an inhibition at 10 µM [2] of 99.8%. It also gave an inhibition at 0.1 µM [2] of 58.5%, an inhibition in vivo at 0.98 µmol/kg (motor activity of mice; ip) of 64.6% and an inhibition in vivo at 98 µmol/kg (motor activity of mice; ip) of 89.8%.
Work on `C#CCN(c1cccc(-c2ccnc3c(C(=O)c4cccs4)cnn23)c1)S(C)(=O)=O` [Example 16 WO2005014597, N-{3-[3-(thiophene-2-carbonyl)-pyrazolo[1,5-a]pyrimidin-7-yl]-phenyl}-N-prop-2-ynyl-methanesulfonamide, reference compound] yielded an inhibition at 10 µM [1] of 100%, an inhibition at 0.1 µM [1] of 99.9% and an inhibition in vivo at 0.98 µmol/kg (motor activity of mice; ip) of 71.4%. For the same molecule, the inhibition in vivo at 98 µmol/kg (motor activity of mice; ip) was 95.4%, the inhibition in vivo at 3 µmol/kg (motor activity of mice; po) was 38.8% and the inhibition in vivo at 98 µmol/kg (motor activity of mice; po) was 84.3%.
For `CC(=O)N(C)c1cccc(-c2ccnc3c(C(=O)c4cccs4)cnn23)c1` [Indiplon, N-{3-[3-(thiophene-2-carbonyl)-pyrazolo[1,5-a]pyrimidin-7-yl]-phenyl}-N-methyl-acetamide, reference compound], the “inhibition percentage (motor activity)” value (motor activity of mice; 5 minutes) was 74%, the “inhibition percentage (motor activity)” value (motor activity of mice; 60 minutes) was 67% and the inhibition in vivo at 0.98 µmol/kg (motor activity of mice; ip) was 70.5%. For the same molecule, the inhibition in vivo at 98 µmol/kg (motor activity of mice; ip) was 88%, the inhibition in vivo at 3 µmol/kg (motor activity of mice; po) was 73.7% and the inhibition in vivo at 98 µmol/kg (motor activity of mice; po) was 82.4%. It also gave a Percent parent remaining ([3]; 60 min) of 100%, a Percent parent remaining ([3]; 120 min) of 98% and a Vd [4] of 2.32 L/kg. For the same molecule, the clearance [4] was 57.5 mL/min/kg, the half-life [4] was 0.984 h and the AUC0-t [4] was 700 ng·h/mL.
`CC(=O)N(C)c1cc(-c2ccnc3c(C(=O)c4cccs4)cnn23)ccc1F` [Preparative example 2, N-{2-Fluoro-5-[3-(thiophene-2-carbonyl)-pyrazolo[1,5-a]pyrimidin-7-yl]-phenyl}-N-methyl-acetamide] showed an inhibition at 10 µM [1] of 100%, an inhibition at 0.1 µM [1] of 95.3% and an inhibition at 10 µM [2] of 99.3%. The inhibition at 0.1 µM [2] was 67.3%, the “inhibition percentage (motor activity)” value (motor activity of mice; 5 minutes) was 84% and the “inhibition percentage (motor activity)” value (motor activity of mice; 60 minutes) was 84%. For the same molecule, the inhibition in vivo at 0.98 µmol/kg (motor activity of mice; ip) was 81.2%, the inhibition in vivo at 98 µmol/kg (motor activity of mice; ip) was 95% and the inhibition in vivo at 3 µmol/kg (motor activity of mice; po) was 84%. For the same molecule, the inhibition in vivo at 98 µmol/kg (motor activity of mice; po) was 92.3%, the “cytotoxicity compared with prior art compounds” value (HepG2 cells) was “less cytotoxicity than prior art compounds” and the Percent parent remaining ([3]; 60 min) was 104%. For the same molecule, the Percent parent remaining ([3]; 120 min) was 110%, the Vd [4] was 7.24 L/kg and the clearance [4] was 45.7 mL/min/kg. The half-life [4] was 1.73 h, the AUC0-t [4] was 1100 ng·h/mL and the “area under the curve higher than Indiplon” value ([4]; versus Indiplon) was 57%. For the same molecule, the “clearance lower than Indiplon” value ([4]; versus Indiplon) was 20%, the “half-life higher than Indiplon” value ([4]; versus Indiplon) was 76% and the “volume of distribution higher than Indiplon” value ([4]; versus Indiplon) was 212%.
For `CC(=O)N(C)c1cc(-c2ccnc3c(C(=O)c4cccs4)cnn23)ccc1Cl` [Preparative example 4, N-{2-Chloro-5-[3-(thiophene-2-carbonyl)-pyrazolo[1,5-a]pyrimidin-7-yl]-phenyl}-N-methyl-acetamide], the inhibition at 10 µM [1] was 99.8%, the inhibition at 0.1 µM [1] was 60% and the inhibition at 10 µM [2] was 95.7%. It also gave an inhibition at 0.1 µM [2] of 8.4%, an inhibition in vivo at 98 µmol/kg (motor activity of mice; ip) of 90.3% and an inhibition in vivo at 98 µmol/kg (motor activity of mice; po) of 88.7%. For the same molecule, the “cell toxicity in HepG2, percentage of control (relative cell viability)” value (HepG2 cells) was 92.86%, the “cytotoxicity compared with prior art compounds” value (HepG2 cells) was “less cytotoxicity than prior art compounds” and the Percent parent remaining ([3]; 60 min) was 105%. It also gave a Percent parent remaining ([3]; 120 min) of 103%.
`CN(c1cc(-c2ccnc3c(C(=O)c4cccs4)cnn23)ccc1F)S(C)(=O)=O` [Preparative example 6, N-{2-Fluoro-5-[3-(thiophene-2-carbonyl)-pyrazolo[1,5-a]pyrimidin-7-yl]-phenyl}-N-methyl-methanesulfonamide] showed an inhibition at 10 µM [1] of 99.7%, an inhibition at 0.1 µM [1] of 88.8% and an inhibition at 10 µM [2] of 97.9%. It also gave an inhibition at 0.1 µM [2] of 55.9%, an inhibition in vivo at 0.98 µmol/kg (motor activity of mice; ip) of 69.4% and an inhibition in vivo at 98 µmol/kg (motor activity of mice; ip) of 91.5%. For the same molecule, the inhibition in vivo at 3 µmol/kg (motor activity of mice; po) was 46.2%, the inhibition in vivo at 98 µmol/kg (motor activity of mice; po) was 82% and the “cell toxicity in HepG2, percentage of control (relative cell viability)” value (HepG2 cells) was 84.31%. The “cytotoxicity compared with prior art compounds” value (HepG2 cells) was “less cytotoxicity than prior art compounds”, the Percent parent remaining ([3]; 60 min) was 103% and the Percent parent remaining ([3]; 120 min) was 106%.
Work on `CN(c1cc(-c2ccnc3c(C(=O)c4cccs4)cnn23)ccc1Cl)S(C)(=O)=O` [Preparative example 8, N-{2-Chloro-5-[3-(thiophene-2-carbonyl)-pyrazolo[1,5-a]pyrimidin-7-yl]-phenyl}-N-methyl-methanesulfonamide] yielded a melting point of 241 to 243 °C, an inhibition at 10 µM [1] of 93.8% and an inhibition at 0.1 µM [1] of 40.9%. It also gave an inhibition at 10 µM [2] of 68.9%, an inhibition at 0.1 µM [2] of 0% and an inhibition in vivo at 98 µmol/kg (motor activity of mice; ip) of 78.3%. The “cell toxicity in HepG2, percentage of control (relative cell viability)” value (HepG2 cells) was 75.39% and the “cytotoxicity compared with prior art compounds” value (HepG2 cells) was “less cytotoxicity than prior art compounds”.
Molecule `C#CCN(c1cc(-c2ccnc3c(C(=O)c4cccs4)cnn23)ccc1F)S(C)(=O)=O` [Preparative example 10, N-{2-Fluoro-5-[3-(thiophene-2-carbonyl)-pyrazolo[1,5-a]pyrimidin-7-yl]-phenyl}-N-prop-2-ynyl-methanesulfonamide] has a melting point of 149 to 153 °C, an inhibition at 10 µM [1] of 100% and an inhibition at 0.1 µM [1] of 99.7%. For the same molecule, the inhibition at 10 µM [2] was 100%, the inhibition at 0.1 µM [2] was 97.5% and the inhibition in vivo at 0.98 µmol/kg (motor activity of mice; ip) was 91.9%. The inhibition in vivo at 98 µmol/kg (motor activity of mice; ip) was 91.6%, the inhibition in vivo at 3 µmol/kg (motor activity of mice; po) was 47.9% and the inhibition in vivo at 98 µmol/kg (motor activity of mice; po) was 90.2%. For the same molecule, the “increase in sedative-hypnotic activity” value (motor activity of mice; versus Example 16 of WO2005014597, low dose, independently of the administration route) was “higher than 20%”.
`CCN(C(C)=O)c1cccc(-c2ccnc3c(C#N)cnn23)c1` [Zaleplon, reference compound] gave an inhibition in vivo at 0.98 µmol/kg (motor activity of mice; ip) of 32.7%, an inhibition in vivo at 98 µmol/kg (motor activity of mice; ip) of 85% and an inhibition in vivo at 3 µmol/kg (motor activity of mice; po) of 25.4%. The inhibition in vivo at 98 µmol/kg (motor activity of mice; po) was 64.1%.
